Series [1] in a line: Toxicity in human RBC assessed as hemolytic activity at 50 uM measured after 1 hr by spectrophotometric analysis. It is filed as cell-based, Erythrocyte. The following applies: for Activity: erythrocyte, 1 h, 50 µM.
The nature of series [2]: Thermal stability in Tris-acetate-EDTA buffer of pH 8.3 at 100 degC measured upto 12 hrs by reverse-phase HPLC analysis. It is filed as physicochemical. As to conditions: pH 8.3, 12 h.
In series [3] the test system is RAW264.7. Kind of series: Toxicity in mouse RAW264.7 cells assessed as in induction of Nitric oxide production at 10 or 40 ug/ml measured after 24 hrs by Griess reaction method. It is filed as cell-based. As to conditions: raw264.7, 24 h. On the technique in general: Nitrite, measured by Griess reagent, commonly stands in for NO production.
Series [4] in a line: Toxicity in Thamnaconus modestus RBC assessed as hemolytic activity at 0.08 to 50 uM measured after 1 hr by spectrophotometric analysis. It is filed as cell-based. The following applies: erythrocyte.
Series [5] relates to RAW264.7. Kind of series: Cytotoxicity against mouse RAW264.7 cells assessed as cell viability at 10 or 40 ug/ml measured after 24 hrs by WST assay. The format is cell-based. The following applies: raw264.7, 24 h.
Series [6] is described as follows: Chemical stability assessed as elastase (unknown origin)-mediated degradation in simulated human intestinal fluid at 37 degC measured up to 12 hrs by reverse-phase HPLC analysis. It is filed as ADME, physicochemical. The following applies: simulated gi fluid.
Series [7] is described as follows: Thermal stability of the compound in phosphate buffer of pH 7.4 at 50 ug at 100 degC assessed as conformation changes by measuring changes in short wavelength region (195 nanometer) by CD analysis. The format is physicochemical.
Series [8] in a line: Chemical stability assessed as trypsin (unknown origin)-mediated degradation in simulated human intestinal fluid at 37 degC measured up to 12 hrs by reverse-phase HPLC analysis. It is filed as ADME, physicochemical. As to conditions: simulated gi fluid.
Series [9] can be described thus: Chemical stability assessed as chymotrypsin (unknown origin)-mediated degradation in simulated human intestinal fluid at 37 degC measured up to 12 hrs by reverse-phase HPLC analysis. It is filed as ADME, physicochemical. The following applies: simulated gi fluid.
A short description of series [10]: Cytotoxicity against rat Ac2F cells at 30 uM. The format is cell-based.
The nature of series [11]: Thermal stability of the compound in phosphate buffer of pH 7.4 at 50 ug at 25 degC by CD analysis. The format is physicochemical.
Series [12] in a line: Chemical stability assessed as pepsin (unknown origin)-mediated degradation in simulated human intestinal fluid at 37 degC measured up to 12 hrs by reverse-phase HPLC analysis. It is filed as ADME, physicochemical. The following applies: simulated gi fluid.
The next series concerns Plasma. Kind of series: Metabolic stability in human plasma at 37 degC measured upto 12 hrs by reverse-phase HPLC analysis. It is filed as ADME, cell-free.

Where a SMILES comes first, the peptide text is derived from it. Bridges are numbered along the chain shown (N, C = ends). [ ]: non-standard residue; d: D form. ξ: configuration not given here. ξpGlu = O=C1CCC(C(=O)O)N1

For `CC[C@H](C)[C@H](NC(=O)[C@@H](NC(=O)[C@H](Cc1ccc(O)cc1)NC(=O)[C@@H]1CSSC[C@@H]2NC(=O)[C@@H]3CCCN3C(=O)[C@H](CC(N)=O)NC(=O)[C@H](Cc3ccccc3)NC(=O)[C@H](CCC(=O)O)NC(=O)[C@H](C(C)C)NC(=O)[C@H](CC(=O)O)NC(=O)[C@@H]3CSSC[C@H](NC(=O)[C@H]([C@H](C)O)NC(=O)[C@H](CC(C)C)NC(=O)[C@@H]4CCCN4C(=O)[C@@H]4CCCN4C(=O)[C@H](CSSC[C@H](N)C(=O)N4CCC[C@H]4C(=O)NCC(=O)N[C@@H](CCC(=O)O)C(=O)NCC(=O)N[C@@H](CCC(=O)O)C(=O)N[C@@H](CCC(N)=O)C(=O)N3)NC2=O)C(=O)N[C@@H]([C@@H](C)CC)C(=O)N2CCC[C@H]2C(=O)NCC(=O)N[C@@H](CC(=O)O)C(=O)N2CCC[C@H]2C(=O)N[C@@H](Cc2ccc(O)cc2)C(=O)NCC(=O)N[C@@H]([C@@H](C)CC)C(=O)N1)[C@@H](C)CC)C(=O)O`, the Activity result (in [1]; in the series on RAW264.7 [3]; in [4]; with RAW264.7 [5]) was “Non-toxic” in each case. In [2], the Stability result is “Stable”.
`CC(C)C[C@@H]1NC(=O)CNC(=O)[C@H](CC(N)=O)NC(=O)[C@H](CCCNC(=N)N)NC(=O)[C@H]([C@@H](C)O)NC(=O)[C@@H]2CSSC[C@@H]3NC(=O)[C@H]([C@@H](C)O)NC(=O)CNC(=O)CNC(=O)[C@H](C(C)C)NC(=O)[C@@H]4CSSC[C@H](NC(=O)[C@H]([C@@H](C)O)NC(=O)[C@H](CSSC[C@H](NC(=O)[C@H](C(C)C)NC(=O)[C@@H]5CCCN5C1=O)C(=O)NCC(=O)N[C@@H](CCC(=O)O)C(=O)N[C@@H]([C@@H](C)O)C(=O)N4)NC(=O)CNC(=O)[C@@H]1CCCN1C(=O)[C@H]([C@@H](C)O)NC(=O)[C@H](CC(N)=O)NC3=O)C(=O)N[C@@H](CO)C(=O)N[C@@H](Cc1c[nH]c3ccccc13)C(=O)N1CCC[C@H]1C(=O)N[C@@H](C(C)C)C(=O)N2`: the hemolysis at 1 h, 50 µM in series [1] (red blood cells, read-out: Activity) was determined as 74%. Besides, the Stability entry in series [2] is “Stable”.
As to `CC[C@H](C)[C@H](NC(=O)[C@@H](NC(=O)[C@H](Cc1ccc(O)cc1)NC(=O)[C@@H]1CSSC[C@@H]2NC(=O)[C@@H]3CCCN3C(=O)[C@H](CC(N)=O)NC(=O)[C@H](Cc3ccccc3)NC(=O)[C@H](CCC(=O)O)NC(=O)[C@H](C(C)C)NC(=O)[C@H](CC(=O)O)NC(=O)[C@@H]3CSSC[C@H](NC(=O)[C@H]([C@@H](C)O)NC(=O)[C@H](CC(C)C)NC(=O)[C@@H]4CCCN4C(=O)[C@@H]4CCCN4C(=O)[C@H](CSSC[C@H](N)C(=O)N4CCC[C@H]4C(=O)NCC(=O)N[C@@H](CCC(=O)O)C(=O)NCC(=O)N[C@@H](CCC(=O)O)C(=O)N[C@@H](CCC(=O)O)C(=O)N3)NC2=O)C(=O)N[C@@H]([C@@H](C)CC)C(=O)N2CCC[C@H]2C(=O)NCC(=O)N[C@@H](CC(=O)O)C(=O)N2CCC[C@H]2C(=O)N[C@@H](Cc2ccc(O)cc2)C(=O)NCC(=O)N[C@@H]([C@@H](C)CC)C(=O)N1)[C@@H](C)CC)C(=O)O` (H-CPGEGEECDVEFNPCCPPLTCIPGDPYGICYII-OH; disulfide 1-16, 8-21, 15-30), the Stability result in series [6] was “Stable”; in series [7] it was “Unstable”; in [8], “Stable”; in series [9], “Stable”; in series [2], “Stable”; in [11] it was “Stable”. Besides, the Stability entry (in series [12]; in the series on Plasma) was “Stable” each time. The Activity result (in [1]; with RAW264.7 [3]; in series [10]; in series [4]; with RAW264.7 [5]) was “Non-toxic” throughout.
On to `CC[C@H](C)[C@@H]1NC(=O)[C@@H]2CSSC[C@@H]3NC(=O)[C@H](CO)NC(=O)[C@H](CCC(=O)O)NC(=O)CNC(=O)[C@H](CCC(=O)O)NC(=O)[C@H](Cc4ccccc4)NC(=O)[C@H](C)NC(=O)[C@@H](NC(=O)CNC(=O)C4CCC(=O)N4)CSSC[C@H](NC(=O)[C@H](CSSC[C@@H](C(=O)N[C@@H](Cc4ccc(O)cc4)C(=O)N[C@@H](Cc4ccc(O)cc4)C(=O)N[C@@H](CC(C)C)C(=O)O)NC(=O)[C@H]([C@@H](C)O)NC(=O)CNC(=O)[C@H](CC(=O)O)NC(=O)[C@@H]4CCCN4C(=O)[C@H](CC(N)=O)NC(=O)CNC(=O)[C@@H]4CCCN4C1=O)NC(=O)[C@@H]1CCCN1C(=O)[C@H](Cc1ccc(O)cc1)NC(=O)[C@H](Cc1ccccc1)NC(=O)[C@H](CCC(=O)O)NC(=O)[C@H](C(C)C)NC(=O)[C@H](CC(N)=O)NC3=O)C(=O)N1CCC[C@H]1C(=O)NCC(=O)N[C@@H](CC(C)C)C(=O)NCC(=O)N[C@@H](CC(C)C)C(=O)N[C@@H]([C@@H](C)O)C(=O)N2` (stereo not given in full) ([ξpGlu]GCAFEGESCNVEFYPCCPGLGLTCIPGNPDGTCYYL-OH; disulfide 3-18, 10-25, 17-34), for which the Activity entry in series [1] and in series [4] was “Non-toxic” in each case.
Regarding `CC[C@H](C)[C@@H]1NC(=O)CNC(=O)CNC(=O)[C@@H]2CCCN2C(=O)[C@H](CC(=O)O)NC(=O)CNC(=O)[C@@H]2CCCN2C(=O)[C@H](Cc2ccc(O)cc2)NC(=O)[C@@H]2CSSC[C@@H]3NC(=O)[C@H](CCC(=O)O)NC(=O)[C@H](CCC(=O)O)NC(=O)CNC(=O)[C@@H]4CCCN4C(=O)CNC(=O)[C@H](C)NC(=O)[C@@H](NC(=O)CNC(=O)C4CCC(=O)N4)CSSC[C@H](NC(=O)[C@H](CSSC[C@@H](C(=O)N[C@@H](Cc4ccc(O)cc4)C(=O)O)NC1=O)NC(=O)[C@H](CC(=O)O)NC(=O)[C@H](Cc1ccc(O)cc1)NC(=O)[C@H](Cc1ccccc1)NC(=O)CNC(=O)[C@H](C(C)C)NC(=O)[C@H]([C@@H](C)CC)NC3=O)C(=O)N1CCC[C@H]1C(=O)NCC(=O)N[C@@H](Cc1ccc(O)cc1)C(=O)N[C@@H](CCCNC(=N)N)C(=O)N2` (stereo not given in full) ([ξpGlu]GCAGPGEECIVGFYDCCPGYRCYPGDPGGICY-OH; disulfide 3-18, 10-23, 17-32), the Activity entry (in series [1]; in the series with RAW264.7 [3]; in series [4]; with RAW264.7 [5]) was “Non-toxic” in each case.
Consider `CC[C@H](C)[C@@H]1NC(=O)[C@H](CC(C)C)NC(=O)CNC(=O)[C@H](CC(=O)O)NC(=O)[C@@H]2CSSC[C@H](NC(=O)[C@H](Cc3c[nH]c4ccccc34)NC(=O)C3CCC(=O)N3)C(=O)N[C@@H](C)C(=O)N[C@@H](CCC(=O)O)C(=O)N[C@@H](CCC(=O)O)C(=O)NCC(=O)N[C@@H](CCC(=O)O)C(=O)N[C@@H](CO)C(=O)N[C@H]3CSSC[C@H](NC1=O)C(=O)N[C@@H](Cc1ccc(O)cc1)C(=O)N1CCC[C@H]1C(=O)N[C@@H]([C@@H](C)O)C(=O)N[C@@H](Cc1ccccc1)C(=O)N1CCC[C@H]1C(=O)N[C@@H](CCC(=O)O)C(=O)N1CCC[C@H]1C(=O)N[C@@H]([C@@H](C)CC)C(=O)N[C@H](C(=O)NCC(=O)N[C@H](C(=O)O)C(C)C)CSSC[C@H](NC(=O)[C@@H]1CCCN1C(=O)[C@H](Cc1ccc(O)cc1)NC(=O)[C@H](C(C)C)NC(=O)[C@H](CCC(=O)O)NC3=O)C(=O)N2` (stereo not given in full) ([ξpGlu]WCAEEGESCEVYPCCDGLICYPTFPEPICGV-OH; disulfide 3-16, 10-21, 15-30), for which the Stability result is reported as “Stable” in [6]; “Unstable” in series [7]; “Stable” in series [8]; “Stable” in series [9]; “Stable” in series [11]; “Stable” in series [12]. In addition, the Stability entry with Plasma was “Stable”. Further, the Activity entry in series [1] and in [4] was “Non-toxic” throughout.

The record behind these values is ChEMBL document CHEMBL3808389, “Stable and biocompatible cystine knot peptides from the marine sponge Asteropus sp” (Bioorg Med Chem, 2016).
